Columns and labels:
Format in all cases: cell-based
[1] = test system: BG-1 ovarian carcinoma cells; experiment: Inhibition of BG-1 ovarian carcinoma cell proliferation; conditions: 17β-estradiol (0.1 nM)-dependent growth, 72 h, 3H-thymidine incorporation
Description: BG-1 cells serve as a useful in vitro model for the evaluation of the effects of antiestrogenic compounds on ovarian tumor growth (Greenberger, L. M. et. al., Clin. Cancer Res. 7:3166-3177, 2001). Benzopyranone compounds having an IC50<100 nM are particularly useful as anti-ovarian cancer agents in vivo.
BG-1 ovarian carcinoma cells were plated in 24-well dishes at a density of 5×10^3 cells/well in phenol-red free DMEM:F-12 (1:1) medium containing 1% antibiotics, 0.05% mercaptoethanol, 0.01% ethanolamine, 0.42 ng/mL sodium selenite and 5% charcoal-stripped FCS. Illustrative benzopyranone compounds (0.1-1000 nM in 0.2% DMSO) and 0.1 nM 17β-estradiol were added to the cultured BG-1 ovarian carcinoma cells and incubated for 72 h. Subsequently, ^3H-labeled thymidine was added and its incorporation into cells was measured following 4h incubation. The results are expressed as IC50 (nM) values (Table 2) which is the concentration of the benzopyranone compound necessary to inhibit the growth of BG-1 ovarian carcinoma cells by 50% relative to controls.

[2] = test system: IL-6 release from human U-2 OS osteosarcoma cells stably transfected with human ER-α or ER-β; experiment: Inhibition of IL-6 release; conditions: U2OS, U-2 OS cells with ER-α or ER-β (table does not say which), stimulated with 2.5 ng/ml TNFα and 1 ng/ml IL-1β, IL-6 ELISA after 24 h
Description: Illustrative benzopyranone compounds were tested for their ability to inhibit IL-6 release from human U-2 OS osteosarcoma cells stably transfected with human ER-α or ER-β. (Stein, B.; Yang, M. X. Mol. Cell. Biol 15: 4971-4979, 1995; Poli, V. et. al., EMBO J. 13:1189-1196, 1994). […] Benzopyranone compounds having an IC50<100 nM are particularly useful as bone resorption inhibitors in vivo. Accordingly, the compounds of this assay, illustrative benzopyranone compounds, are particularly useful for the treatment of osteoporosis, Paget's disease and metastatic bone cancer. These compounds are also useful as anti-cancer agents as elevated IL-6 levels are responsible for certain cancers such as multiple myeloma, prostate cancer, ovarian cancer, renal carcinoma and cervical carcinoma.
Human U-2 OS osteosarcoma cells (ATCC) were stably transfected with expression vectors for human full-length ER-α or ER-β, respectively, using standard molecular biology techniques. Stable subclones were generated that expressed high levels of ER-α or ER-β mRNA. The expression of ER-α and ER-β was confirmed using RNase protection analysis.
Cells were plated into 96-well plates at a density of 80,000 cells per well in phenol red-free media with charcoal-stripped fetal calf serum. Twenty four hours later, cells were either treated with vehicle (0.2% DMSO) or test compound ([…] in 0.2% DMSO). Thirty minutes later cells were stimulated with 2.5 ng/ml TNFα and 1 ng/ml IL-1β. Twenty-four hours later the media supernatant was analyzed for cytokine production (IL-6) using commercially available ELISA kits following the manufacturer's instructions. Cytokine production in the presence of vehicle (0.2% DMSO) was set to 100%. The results are expressed as IC50 (nM) values (Table 2) which is the concentration of the benzopyranone compound necessary to inhibit the production of IL-6 50% relative to the amount of IL-6 produced in the presence of vehicle.

[3] = test system: MCF-7 breast cancer cells; experiment: Inhibition of MCF-7 breast cancer cell proliferation; conditions: Homo sapiens, MCF7; 17β-estradiol (0.1 nM)-dependent growth, 72 h, 3H-thymidine incorporation
Description: MCF-7 cells represent an excellent in vitro system to study the effects of compounds on estrogen-dependent breast cancer growth. (May, F. E. B.; Westley, B. R. J. Biol. Chem. 262:15894-15899, 1987). Benzopyranone compounds having an IC50<100 nM are particularly useful as anti-breast cancer agents in vivo.
MCF-7 breast carcinoma cells were plated in 24-well dishes at a density of 5×10^3 cells/well in phenol-red free DMEM:F-12 (1:1) medium containing 1% antibiotics, 0.05% mercaptoethanol, 0.01% ethanolamine, 0.42 ng/mL sodium selenite and 5% charcoal-stripped FCS.
Illustrative benzopyranone compounds (0.1-1000 nM in 0.2% DMSO) and 0.1 nM 17β-estradiol were added to the cultured MCF-7 breast cancer cells for 72 h. Subsequently, ^3H-labeled thymidine was added and its incorporation into cells was measured following 4 h incubation. The results are expressed as IC50 (nM) values (Table 2) which is the concentration of the benzopyranone compound necessary to inhibit the growth of MCF-7 breast cancer cells by 50% relative to controls.

Row | SMILES | IC50 [1] | IC50 [2] | IC50 [3]
1 | C=C/C(=C\C=C\OCCN1CCCC1)Cc1c(-c2ccc(C(F)(F)F)cc2)c(=O)oc2cc(O)ccc12 | 9.35 nM | 1.45 nM | 15.8 nM
2 | O=c1oc2cc(O)ccc2c(Cc2ccc(OCCN3CCCC3)cc2)c1-c1ccc(Cl)cc1C(F)(F)F | 3.2 nM | 0.45 nM | 4.1 nM
3 | O=c1oc2cc(O)ccc2c(Cc2ccc(OCCN3CCCC3)cc2)c1-c1ccc(Cl)cc1Cl | 0.69 nM | 0.32 nM | 5.4 nM
4 | O=c1oc2cc(O)ccc2c(Cc2ccc(OCCN3CCCC3)cc2)c1-c1ccc(C(F)(F)F)cc1Cl | 3.4 nM | 0.4 nM | 5.5 nM
5 | O=c1oc2cc(O)ccc2c(Cc2ccc(OCCN3CCCC3)cc2)c1-c1ccc(C(F)(F)F)cc1C(F)(F)F | 6.6 nM | 0.41 nM | 19 nM

Reference: US6620838B1, “Benzopyrazone compounds, compositions thereof, and methods of treatment therewith” (Signal Pharmaceuticals, Inc., priority 2002, dated 2003)
